Patent US7524869B2, “Taxanes having a C10 ester substituent” (Florida State University Research Foundation, Inc., priority 2000, dated 2009)

Test system: HCT116
Experiment: In vitro cytotoxicity measured by the cell colony formation assay
Format: cell-based
Details: HCT116 cells, 72 h drug incubation, colonies counted after 7 days; ID50 = drug concentration producing 50% inhibition of colony formation; read-out: IN VITRO ID 50 (nm) HCT116
For `CCC(=O)O[C@H]1C(=O)[C@@]2(C)C([C@H](OC(=O)c3ccccc3)[C@]3(O)C[C@H](OC(=O)[C@H](O)[C@@H](NC(=O)c4cccnc4)c4cccs4)C(C)=C1C3(C)C)[C@]1(OC(C)=O)CO[C@@H]1C[C@@H]2O` (some centres unmarked) [Compound 4121], the IC50 was less than 10 nM.
Molecule `C/C=C/C(=O)O[C@H]1C(=O)[C@@]2(C)C([C@H](OC(=O)c3ccccc3)[C@]3(O)C[C@H](OC(=O)[C@H](O)[C@@H](NC(=O)OC(C)(C)C)c4cccs4)C(C)=C1C3(C)C)[C@]1(OC(C)=O)CO[C@@H]1C[C@@H]2O` (some centres unmarked) [Compound 2392] has an IC50 of less than 1 nM.
Work on `CC(=O)OC12COC1CC(O)C1(C)C(=O)C(OC(=O)c3cccs3)C3=C(C)C(OC(=O)C(O)C(NC(=O)OC(C)(C)C)c4ccc([N+](=O)[O-])cc4)CC(O)(C(OC(=O)c4ccccc4)C21)C3(C)C` (centres unmarked) [Compound 1911] yielded an IC50 of less than 10 nM.
Molecule `CC(=O)O[C@@]12CO[C@@H]1C[C@H](O)[C@@]1(C)C(=O)[C@H](OC(=O)C(C)C)C3=C(C)[C@@H](OC(=O)[C@H](O)[C@@H](NC(=O)OC(C)(C)C)c4ccc([N+](=O)[O-])cc4)C[C@@](O)([C@@H](OC(=O)c4ccccc4)C12)C3(C)C` (some centres unmarked) [Compound 2320] has an IC50 of less than 1 nM.
For `CCC(=O)O[C@H]1C(=O)[C@@]2(C)C([C@H](OC(=O)c3ccccc3)[C@]3(O)C[C@H](OC(=O)[C@H](O)[C@@H](NC(=O)OC(C)(C)C)c4ccco4)C(C)=C1C3(C)C)[C@]1(OC(C)=O)CO[C@@H]1C[C@@H]2O` (some centres unmarked) [Compound 0536], the IC50 was less than 1 nM.
In the case of `CCCC(=O)O[C@H]1C(=O)[C@@]2(C)C([C@H](OC(=O)c3ccccc3)[C@]3(O)C[C@H](OC(=O)[C@H](O)[C@@H](NC(=O)OC(C)(C)C)c4ccoc4)C(C)=C1C3(C)C)[C@]1(OC(C)=O)CO[C@@H]1C[C@@H]2O` (some centres unmarked) [Compound 0999], the IC50 is reported as less than 1 nM.
With `CC(=O)OC12COC1CC(O)C1(C)C(=O)C(OC(=O)c3cccs3)C3=C(C)C(OC(=O)C(O)C(C=C(C)C)NC(=O)OC(C)(C)C)CC(O)(C(OC(=O)c4ccccc4)C21)C3(C)C` (centres unmarked) [Compound 1879] the IC50 was less than 10 nM.
For `CC(=O)OC12COC1CC(O)C1(C)C(=O)C(OC(=O)c3cccs3)C3=C(C)C(OC(=O)C(O)C(NC(=O)OC(C)(C)C)c4ccncc4)CC(O)(C(OC(=O)c4ccccc4)C21)C3(C)C` (centres unmarked) [Compound 1954], the IC50 was less than 1 nM.
`CC(=O)O[C@@]12CO[C@@H]1C[C@H](O)[C@@]1(C)C(=O)[C@H](OC(=O)C3CC3)C3=C(C)[C@@H](OC(=O)[C@H](O)[C@@H](NC(=O)OC(C)(C)C)c4ccncc4)C[C@@](O)([C@@H](OC(=O)c4ccccc4)C12)C3(C)C` (some centres unmarked) [Compound 2813] showed an IC50 of less than 1 nM.
Work on `CCC(=O)O[C@H]1C(=O)[C@@]2(C)C([C@H](OC(=O)c3ccccc3)[C@]3(O)C[C@H](OC(=O)[C@H](O)[C@H](C=C(C)C)NC(=O)OC(C)(C)C)C(C)=C1C3(C)C)[C@]1(OC(C)=O)CO[C@@H]1C[C@@H]2O` (some centres unmarked) [Compound 0499] yielded an IC50 of less than 1 nM.
In the case of `CCC(=O)O[C@H]1C(=O)[C@@]2(C)C([C@H](OC(=O)c3ccccc3)[C@]3(O)C[C@H](OC(=O)[C@H](O)[C@@H](NC(=O)c4ccccc4)C(C)C)C(C)=C1C3(C)C)[C@]1(OC(C)=O)CO[C@@H]1C[C@@H]2O` (some centres unmarked) [Compound 0719], the IC50 is reported as less than 10 nM.
`CC(=O)O[C@@]12CO[C@@H]1C[C@H](O)[C@@]1(C)C(=O)[C@H](OC(=O)C3CC3)C3=C(C)[C@@H](OC(=O)[C@H](O)[C@@H](NC(=O)c4ccco4)c4ccco4)C[C@@](O)([C@@H](OC(=O)c4ccccc4)C12)C3(C)C` (some centres unmarked) [Compound 3866] gave an IC50 of less than 1 nM.

Same assay, conditions: Homo sapiens, HCT-116; read-out: IN VITRO ID 50 (nm) HCT116
In the case of `CCC(=O)O[C@H]1C(=O)[C@@]2(C)C([C@H](OC(=O)c3ccccc3)[C@]3(O)C[C@H](OC(=O)[C@H](O)[C@@H](NC(=O)c4ccccc4)c4cccs4)C(C)=C1C3(C)C)[C@]1(OC(C)=O)CO[C@@H]1C[C@@H]2O` (some centres unmarked) [Compound 0687, 3′-Desphenyl-3′-(2-thienyl)-10-propionyl-10-deacetyl taxol], the IC50 is reported as less than 1 nM.

Test system: not given
Experiment: not given
Details: not given
In the case of `CCC(=O)O[C@H]1C(=O)[C@@]2(C)C([C@H](OC(=O)c3ccccc3)[C@]3(O)C[C@H](OC(=O)[C@H](O)[C@@H](NC(=O)c4ccccc4)c4cccs4)C(C)=C1C3(C)C)[C@]1(OC(C)=O)CO[C@@H]1C[C@@H]2O` (some centres unmarked) [Compound 0687, 3′-Desphenyl-3′-(2-thienyl)-10-propionyl-10-deacetyl taxol], the melting point is reported as 154 to 155 °C.
